Literature values, collected in US20250281408A1, “AMORPHOUS SOLID DISPERSIONS AND PHARMACEUTICAL COMPOSITIONS COMPRISING THE SAME” (Shenzhen Pharmacin Co., Ltd., priority 2022, published 2025).
Where two headings read alike, the source gives them in different places. Values belong to the molecule of their own block, whether it stands above or below them.

Legend:
[1] = relative to fasted conditions, healthy subjects
[2] = fed conditions
[3] = high-fat or low-fat meal

Structure (SMILES): CC(=O)O[C@H]1CC[C@@]2(C)C(=CC[C@@H]3[C@@H]2CC[C@]2(C)C(c4cccnc4)=CC[C@@H]32)C1 [Abiraterone Acetate]
solubility in water: very poorly water soluble

Structure (SMILES): CCc1cc2c(cc1N1CCC(N3CCOCC3)CC1)C(C)(C)c1[nH]c3cc(C#N)ccc3c1C2=O [alectinib]
solubility in aqueous solution / aqueous media: very hard to dissolve
absolute bioavailability [2]: 37%

Structure (SMILES): O=C1[C@@H]2[C@H]3CC[C@H](C3)[C@@H]2C(=O)N1C[C@@H]1CCCC[C@H]1CN1CCN(c2nsc3ccccc23)CC1 [lurasidone]
solubility in water: very slightly soluble

Structure (SMILES): N#Cc1ccc2[nH]cc(CCCCN3CCN(c4ccc5oc(C(N)=O)cc5c4)CC3)c2c1 [vilazodone]
solubility in water: very slightly soluble

The next lines start with the values.

solubility in aqueous solution / aqueous media: practically insoluble
increase of AUC by a high-fat meal [1]: 57%
increase of Cmax by a high-fat meal [1]: 41%
Structure (SMILES): COc1cc2nccc(Oc3ccc(NC(=O)C4(C(=O)Nc5ccc(F)cc5)CC4)cc3)c2cc1OC [Cabozantinib]

solubility in water: poor water solubility
Structure (SMILES): CC1(C)CCC(CN2CCN(c3ccc(C(=O)NS(=O)(=O)c4ccc(NCC5CCOCC5)c([N+](=O)[O-])c4)c(Oc4cnc5[nH]ccc5c4)c3)CC2)=C(c2ccc(Cl)cc2)C1 [Venetoclax]

solubility in aqueous media (above pH 4): practically insoluble
solubility in aqueous media (pH 1): very slightly soluble
increase in AUC with food [3]: approximately 2 fold
increase in Cmax with food [3]: approximately 2 fold
Structure (SMILES): Cc1ccc(Nc2nccc(N(C)c3ccc4c(C)n(C)nc4c3)n2)cc1S(N)(=O)=O [pazopanib]
